Data on 48 compounds can be found in patent US12459967B2, “Modulators of 5′-nucleotidase, ecto and the use thereof” (Arcus Biosciences, Inc., priority 2016, dated 2025).

The pIC50 is −log10 of the IC50, conventionally taken in molar units.

pIC50: −log10 of the molar value.

The target of this assay is T1, human CD73 (Homo sapiens, UniProt P21589).
T1 construct: host or cells: CHO-K1 (suspension pool CHO-CD73)
T1 sequence (P21589 27-549): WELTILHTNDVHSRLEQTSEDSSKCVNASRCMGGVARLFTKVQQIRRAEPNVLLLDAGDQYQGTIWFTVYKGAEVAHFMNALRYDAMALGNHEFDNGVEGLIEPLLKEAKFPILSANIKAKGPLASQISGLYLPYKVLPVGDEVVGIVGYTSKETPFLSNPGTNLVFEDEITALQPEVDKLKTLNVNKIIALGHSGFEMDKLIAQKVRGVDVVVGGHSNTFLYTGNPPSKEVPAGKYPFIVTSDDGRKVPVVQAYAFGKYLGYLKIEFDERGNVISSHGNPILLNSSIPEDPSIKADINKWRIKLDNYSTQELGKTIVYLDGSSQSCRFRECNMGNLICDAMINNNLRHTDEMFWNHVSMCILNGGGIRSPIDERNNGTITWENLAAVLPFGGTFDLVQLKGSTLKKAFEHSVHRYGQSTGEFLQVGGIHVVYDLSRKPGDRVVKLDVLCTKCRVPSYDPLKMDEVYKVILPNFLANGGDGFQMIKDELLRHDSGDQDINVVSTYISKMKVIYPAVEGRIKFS
The assay can be described thus: Inhibition of ecto-5′-nucleotidase (CD73) activity in CHO-CD73 cells, phosphate colorimetric readout. In kind it is cell-based. The following applies: CHO-K1 cells stably transfected with human CD73, 2500 cells per well, 25 μM AMP substrate, 50 minutes incubation at 37° C.; read-out: Potency: CD73 IC50. The method, then: Inhibition of Ecto-5′-nucleotidase Activity. Compounds were evaluated to determine their ecto-5′-nucleotidase (CD73) inhibitory activity. Briefly, CHO-K1 cells stably transfected with human CD73 were generated by LakePharma (Belmont, CA) using molecular cloning of human CD73 (http://www.uniprot.org/uniprot/P21589) and mammalian transient expression vector (P21589.1). After antibiotic selection in CD OptiCHO cell media (Invitrogen, Catalog #12681-011) containing 5 μg/mL Puromycin and 200 μg/mL Hygromycin B, a suspension pool of CHO-CD73 cells was collected and frozen in 7.5% DMSO in cell media without antibiotics.
On the day of the experiment, one vial of CHO-CD73 cells was thawed and suspended in assay media which consisted of 20 mM HEPES, pH 7.4, 137 mM NaCl, 5.4 mM KCl, 1.3 mM CaCl2), 4.2 mM NaHCO3 and 0.1% glucose. To test the ability of compounds to inhibit CD73 enzymatic activity, 2 μL of 500 μM of compounds dissolved in DMSO (50×) were added to a 96-well polystyrene plate containing 58 μL of assay buffer. Next, 20 μL of CHO-CD73 cells in assay buffer were added to assay plate followed by 20 μL of 125 μM AMP (Adenosine 5′-monophosphate monohydrate) in assay buffer. Final assay conditions consisted of 2500 cells per well in 2% DMSO and 25 μM of AMP substrate. After 50 minutes of incubation (37° C. and 5% CO2) and centrifugation at 225×g for 5 mins, 80 μL of supernatant were transferred to a 96-well Spectra Plate (PerkinElmer, cat #6005640) which was pre-dispensed with 20 μL of PiColorLock Gold colorimetric assay reagents (Thermo, cat #30 300 30). The amount of inorganic phosphate was determined by reading the absorbance at 620 nm on an EnVision Multilabel Plate Reader (PerkinElmer). Enzymatic activity of CD73 was based on the amount of phosphate generated. Percentage of activity was calculated based on DMSO and no cells control wells. IC50 values of compounds were determined by four parameter non-linear regression fitting of percentage of activity in GraphPad Prism software.
Consider `C[C@H](Nc1cc(Cl)nc2c1cnn2[C@@H]1O[C@H](COP(=O)(O)CP(=O)(O)O)[C@@H](O)[C@H]1O)c1ccccc1`, for which the pIC50 is above 7.00.

With `C[C@@H](Nc1nc(Cl)nc2c1cnn2[C@@H]1O[C@H](COP(=O)(O)CP(=O)(O)O)[C@@H](O)[C@@H]1F)c1ccccc1F`, the pIC50 was above 7.00. For `O=P(O)(O)CP(=O)(O)OC[C@H]1O[C@@H](n2cnc3c(NC4CCCC4)nc(C(F)(F)F)nc32)[C@@H](F)[C@@H]1O`, the pIC50 was above 7.00. Turning to `C[C@H](Nc1nc(Cl)nc2c1cnn2[C@@H]1O[C@H](COP(=O)(O)CP(=O)(O)O)[C@@H](O)[C@@H]1F)c1ccccc1F`, the pIC50 is above 7.00. In the case of `O=P(O)(O)CP(=O)(O)OC[C@H]1O[C@@H](n2cnc3c(N4Cc5ccccc5C4)nc(Cl)nc32)[C@@H](F)[C@@H]1O`, the pIC50 is above 7.00. With `Cc1nc(NC2CCCC2)c2ncn([C@@H]3O[C@H](COP(=O)(O)CP(=O)(O)O)[C@@H](O)[C@@H]3F)c2n1`, the pIC50 is above 7.00. The figure for `O=P(O)(O)CP(=O)(O)OC[C@H]1O[C@@H](n2cnc3c(NCc4ccccc4)nc(N4CCOCC4)nc32)[C@H](O)[C@@H]1O` is above 7.00; for `CNc1nc(NCc2ccccc2)c2ncn([C@@H]3O[C@H](COP(=O)(O)CP(=O)(O)O)[C@@H](O)[C@H]3O)c2n1` it is above 7.00.

On to `C[C@H](Nc1nc(Cl)nc2c1cnn2[C@@H]1O[C@H](COP(=O)(O)CP(=O)(O)O)[C@@H](O)[C@@H]1F)c1cccc(F)c1`, for which the pIC50 is above 7.00. In the case of `C[C@H](Nc1nc(Cl)nc2c1ccn2[C@@H]1O[C@H](COP(=O)(O)CP(=O)(O)O)[C@@H](O)[C@@H]1F)c1ccccc1F`, the pIC50 is above 7.00.

For the compound `O=P(O)(O)CP(=O)(O)OC[C@H]1O[C@@H](n2cnc3c(NCc4ccc(-c5ccccc5)cc4)ncnc32)[C@H](O)[C@@H]1O`, the pIC50 was above 7.00. As to `O=P(O)(O)CP(=O)(O)OC[C@H]1O[C@@H](n2ccc3c(NCc4ccccc4)nc(Cl)nc32)[C@@H](F)[C@@H]1O`, the pIC50 is above 7.00. `O=P(O)(O)CP(=O)(O)OC[C@H]1O[C@@H](n2cnc3c(OCc4ccccc4)nc(Cl)nc32)[C@@H](F)[C@@H]1O`: the pIC50 was above 7.00. On to `O=P(O)(O)CP(=O)(O)OC[C@H]1O[C@@H](n2cnc3c(N[C@@H]4CCOC4)nc(Cl)nc32)[C@@H](F)[C@@H]1O`, for which the pIC50 is above 7.00. `O=P(O)(O)CP(=O)(O)OC[C@H]1O[C@@H](n2cnc3c(NCC4CC4)nc(Cl)nc32)[C@@H](F)[C@@H]1O`: the pIC50 is above 7.00. Consider `O=P(O)(O)CP(=O)(O)OC[C@H]1O[C@@H](n2cnc3c(NCc4ccccc4)nc(C(O)c4ccccc4)nc32)[C@@H](F)[C@@H]1O` (stereo partly drawn), for which the pIC50 is above 7.00. On to `O=P(O)(O)CP(=O)(O)OC[C@H]1O[C@@H](n2cnc3c(NCc4ccccc4)nc(C#Cc4ccccc4)nc32)[C@@H](F)[C@@H]1O`, for which the pIC50 is above 7.00.

As for `C[C@@H](Nc1nc(Cl)nc2c1ccn2[C@@H]1O[C@H](COP(=O)(O)CP(=O)(O)O)[C@@H](O)[C@@H]1F)c1ccc(F)cc1`, the pIC50 is above 7.00.

With `O=P(O)(O)CP(=O)(O)OC[C@H]1O[C@@H](n2ncc3c(NC4CCCC4)ncnc32)[C@H](O)[C@@H]1O`, the pIC50 is above 7.00. On to `O=P(O)(O)CP(=O)(O)OC[C@H]1O[C@@H](n2ncc3c(NCc4ccccc4Cl)nc(Cl)nc32)[C@H](O)[C@@H]1O`, for which the pIC50 is above 7.00. The figure for `O=P(O)(O)CP(=O)(O)OC[C@H]1O[C@@H](n2cnc3c(NCc4ccccc4)nc(CCc4ccccc4)nc32)[C@@H](F)[C@@H]1O` is above 7.00; for `O=P(O)(O)CP(=O)(O)OC[C@H]1O[C@@H](n2cnc3c(N4CCOCC4)nc(Cl)nc32)[C@@H](F)[C@@H]1O` it is above 7.00. The figure for `C[C@@H](Nc1nc(Cl)nc2c1cnn2[C@@H]1O[C@H](COP(=O)(O)CP(=O)(O)O)[C@@H](O)[C@H]1O)c1ccccc1` is above 7.00; for `CC(C)Nc1nc(Cl)nc2c1ncn2[C@@H]1O[C@H](COP(=O)(O)CP(=O)(O)O)[C@@H](O)[C@H]1O` it is above 7.00; for `CC(C)(C)c1ccc(CNc2ncnc3c2ncn3[C@@H]2O[C@H](COP(=O)(O)CP(=O)(O)O)[C@@H](O)[C@H]2O)cc1` it is above 7.00.

In the case of `CN(c1nc(Cl)nc2c1ncn2[C@@H]1O[C@H](COP(=O)(O)CP(=O)(O)O)[C@@H](O)[C@@]1(C)O)C1CCCC1`, the pIC50 was above 7.00. As to `COCc1nc(NC2CCCC2)c2ncn([C@@H]3O[C@H](COP(=O)(O)CP(=O)(O)O)[C@@H](O)[C@@H]3F)c2n1`, the pIC50 was above 7.00. The figure for `O=P(O)(O)CP(=O)(O)OC[C@H]1O[C@@H](n2cnc3c(NC4CCCC4)cc(Cl)nc32)[C@H](O)[C@@H]1O` is above 7.00; for `O=P(O)(O)CP(=O)(O)OC[C@H]1O[C@@H](n2cnc3c(NCc4cc(Cl)cc(Cl)c4)ncnc32)[C@H](O)[C@@H]1O` it is above 7.00; for `O=P(O)(O)CP(=O)(O)OC[C@H]1O[C@@H](n2cnc3c(NC4CCCC4)nc(CN4CCCCC4)nc32)[C@@H](F)[C@@H]1O` it is 6.00 to 7.00.

Regarding `O=P(O)(O)CP(=O)(O)OC[C@H]1O[C@@H](n2cnc3c(NCc4cccc(Cl)c4)nc(Cl)nc32)[C@@H](F)[C@@H]1O`, the pIC50 is above 7.00. The figure for `C[C@@H](Nc1nc(Cl)nc2c1ccn2[C@@H]1O[C@H](COP(=O)(O)CP(=O)(O)O)[C@@H](O)[C@@H]1F)c1cccc(F)c1` is above 7.00.

In the case of `C[C@@H](Nc1nc(Cl)nc2c1cnn2[C@@H]1O[C@H](COP(=O)(O)CP(=O)(O)O)[C@@H](O)[C@@H]1F)c1ccccc1`, the pIC50 was above 7.00.

Turning to `O=P(O)(O)CP(=O)(O)OC[C@H]1O[C@@H](n2cnc3c(NCc4ccc(Cl)cc4)nc(Cl)nc32)[C@@H](F)[C@@H]1O`, the pIC50 was above 7.00. Under `O=P(O)(O)CP(=O)(O)OC[C@H]1O[C@@H](n2ncc3c(NC4CCCC4)cc(Cl)nc32)[C@H](O)[C@@H]1O` stands above 7.00; under `O=P(O)(O)CP(=O)(O)OC[C@H]1O[C@@H](n2cnc3c(NC4CCCC4)nc(C(O)C4CCOCC4)nc32)[C@@H](F)[C@@H]1O` (stereo partly drawn), 6.00 to 7.00. As for `C[C@H](Nc1nc(Cl)nc2c1ncn2[C@@H]1O[C@H](COP(=O)(O)CP(=O)(O)O)[C@@H](O)[C@@H]1F)c1ccccc1`, the pIC50 is above 7.00. Consider `CC(C)(C)c1ccc(CNc2nc(Cl)nc3c2ncn3[C@@H]2O[C@H](COP(=O)(O)CP(=O)(O)O)[C@@H](O)[C@H]2O)cc1`, for which the pIC50 was above 7.00. Consider `O=P(O)(O)CP(=O)(O)OC[C@H]1O[C@@H](n2cnc3c(NCc4ccccc4Cl)nc(Cl)nc32)[C@@H](F)[C@@H]1O`, for which the pIC50 is above 7.00. The figure for `COP(=O)(CP(=O)(O)OC[C@H]1O[C@@H](n2cnc3c(N(C)C4CCCC4)nc(Cl)nc32)[C@@H](F)[C@@H]1O)OC` is below 6.00; for `CN(Cc1ccccc1Cl)c1nc(Cl)nc2c1ncn2[C@@H]1O[C@H](COP(=O)(O)CP(=O)(O)O)[C@@H](O)[C@@H]1F` it is above 7.00.

Consider `C[C@@H](Nc1cc(Cl)nc2c1cnn2[C@@H]1O[C@H](COP(=O)(O)CP(=O)(O)O)[C@@H](O)[C@@H]1F)c1ccccc1`, for which the pIC50 is above 7.00.

As for `C[C@H](Nc1nc(Cl)nc2c1cnn2[C@@H]1O[C@H](COP(=O)(O)CP(=O)(O)O)[C@@H](O)[C@H]1O)c1ccccc1F`, the pIC50 was above 7.00. For the compound `O=P(O)(O)CP(=O)(O)OC[C@H]1O[C@@H](n2cnc3c(NC4CCCC4)nc(Cl)cc32)[C@H](O)[C@@H]1O`, the pIC50 was above 7.00.

Take `Nc1ncnc2c1ncn2[C@@H]1O[C@H](COP(=O)(O)CP(=O)(O)O)[C@@H](O)[C@H]1F`: the pIC50 was below 6.00.

Regarding `CCC(OP(=O)(O)CP(=O)(O)O)[C@H]1O[C@@H](n2cnc3c(NCc4ccccc4)nc(Cl)nc32)[C@H](O)[C@@H]1O` (stereo partly drawn), the pIC50 was above 7.00. Regarding `C[C@H](Nc1nc(Cl)nc2c1cnn2[C@@H]1O[C@H](COP(=O)(O)CP(=O)(O)O)[C@@H](O)[C@@H]1F)c1ccc(F)cc1`, the pIC50 was above 7.00. Under `O=P(O)(O)CP(=O)(O)OC[C@H]1O[C@@H](n2ncc3c(NCCc4ccccc4Cl)nc(Cl)nc32)[C@H](O)[C@@H]1O` stands above 7.00.
